Measurements taken from patent US20200267989A1, “PARASITE TREATMENT COMPOUND” (University of Maine System Board of Trustees, priority 2017, published 2020).
“And” between values parts separate entries of the source, which are not always exact repeats. Equal entries are not always repeated.

Columns and labels:
Atlantic salmon = assay: KCl bath treatment of Atlantic salmon: adverse effects on the fish; type: in vivo
Procedure: (§1) A 0.48% (4.8 g/L-4.8 ppt) pharmaceutical grade KCl compound was tested on 30 Atlantic salmon that were infected with sea lice. The fish and the compound were added to a tank filled with seawater. After 30 minutes 15 fish were removed and placed in a recovery bath of seawater, and at 60 minutes the remaining 15 fish were removed.
(§2) A 0.43% % (4.3 g/L-4.3 ppt) agricultural grade KCl compound was tested on Atlantic salmon that were infected with sea lice. After 10 minutes the fish began showing agitation that increased until the 30 minute mark. Fish began losing equilibrium and began to roll over and stop respiring by 20 minutes.
(§3) A water holding tank was filled with fresh well water at 10° C.+−2° C. A 0.5% % (5.0 g/L-5.0 ppt) agricultural grade KCl solution was added to the water. A number of farm-raised Atlantic salmon that were infected with sea lice were added to the tank.
(§4) A water holding tank was filled with fresh well water at 10° C.+−2° C. A 0.2% % (2.0 g/L-2.0 ppt) agricultural grade KCl solution was added to the water. A number of farm-raised Atlantic salmon that were infected with sea lice were added to the tank.

sea lice [1] = assay: Pilot laboratory trial: KCl pre-treatment plus mechanical devices for removal of sea lice from Atlantic salmon; type: in vivo
Procedure: A pilot laboratory trial was run using various forms of mechanical devices for removal of sea lice from Atlantic salmon (ATS). The effectiveness of the mechanical devices at removing/detaching lice was measured with and without KCl pretreatment, and the results compared.
The experiment consisted of testing 3 mechanical devices on lice infested Atlantic salmon (ATS) in seawater and then on lice infested Atlantic salmon that had been pre-treated in seawater with KCL at 4 part per thousand (PPT) or 2 PPT for 5 or 15 minutes. The mechanical treatment referred to as Treatment A in Table 1 was a water spray apparatus including multiple jets in a roughly circular arrangement, and treatments B and C in Table 1 were alternative mechanical treatments. Each treatment group was run separately with two fish were staggered by 15 minutes to facilitate counting lice, except for Treatment C as both fish were placed together. The treatment groups were as follows: • 1) Treatment A with seawater (2 fish) • 2) Treatment A with sea water plus KCL 4 PPT, 15 minutes (2 fish) • 3) Treatment B with seawater (2 fish) • 4) Treatment B with sea water plus KCL 4 PPT, 15 minutes (2 fish) • 5) Treatment A with seawater plus 2PPT, 15 minutes (1 fish) • 6) Treatment A with sea water plus KCL 4 PPT, 5 minutes (1 fish) • 7) Treatment C with seawater (2 fish) • 8) Treatment C sea water plus KCL 2 PPT (2 fish)
Each treatment group was performed essentially as follows:
Pre-Treatment before Treatment A, B, or C • 1) Take 1 fish and transfer it to Tank 1 (70 liter tank); • 2) Take 1 fish and transfer it to Tank 2, staggered (70 liter tank); • 3) Both tanks will be filled with seawater for Round 1 of a treatment group and seawater and KC1 4PPT X for Round 2 for a treatment; • 4) Fish swim around freely in treatment Tank 1 for 30 minutes; • 5) Fish swim around freely in treatment Tank 2 for 30 minutes;
Evaluation of Pretreatment: • 1) Remove Fish from Tank 1; • 2) Place 1 Fish in Sedation Tank; • 3) Count detached lice in Tank 1; • 4) Remove 1 Fish from Sedation Tank; • 5) Count numbers of Lice on each fish (making sure to differentiate between the two tanks); • 6) Repeat for staggered Tank 2.
Perform Mechanical Treatment: • 1) Pass fish through mechanical treatments (A, B or C) • 2) Count lice on fish

sea lice [2] = assay: KCl bath treatment of sea-lice-infected Atlantic salmon: sea lice detachment; type: in vivo
Procedure: as §1, §2, §3, §4

[3] = previously known pesticide treatment; cited from earlier work
[4] = Example 1: 0.48% (4.8 ppt) pharmaceutical grade KCl, seawater tank, 30 and 60 minutes
[5] = Example 3: 0.5% (5.0 ppt) agricultural grade KCl, fresh well water at 10° C.
[6] = Mechanical Treatment A, KCl 2 PPT in seawater, treatment time 15 min
[7] = Mechanical Treatment A, KCl 4 PPT in seawater, treatment time 5 min
[8] = Mechanical Treatment A, KCl 4 PPT in seawater, treatment time 15 min
[9] = Mechanical Treatment B, KCl 4 PPT in seawater, treatment time 15 min

[Cl-].[K+] [KCl, potassium chloride]
adverse effects on the salmon (Atlantic salmon; [4]): no noticeable adverse effects | time by which fish began losing equilibrium, rolled over and stopped respiring (Atlantic salmon; Example 2: 0.43% (4.3 ppt) agricultural grade KCl): ≤ 20 min | time after which fish began showing agitation (Atlantic salmon; Example 2: 0.43% (4.3 ppt) agricultural grade KCl, agitation increased until the 30 minute mark): 10 min | time within which fish showed extreme agitation, began to lose equilibrium and respiration stopped (Atlantic salmon; [5]): ≤ 10 min | agitation or adverse effect on the fish (Atlantic salmon; Example 4: 0.2% (2.0 ppt) agricultural grade KCl, fresh well water at 10° C., after 60 minutes): no agitation or adverse effect | effect of KCl on effectiveness of mechanical treatments A and B at removing/detaching lice (sea lice [1]; KCl pretreatment in seawater before mechanical treatment): increases the effectiveness | # removed - mechanical + KCl (sea lice [1]; [6]): 90 | # removed - mechanical treatment only (sea lice [1]; [6]): 39 | % removed - mechanical + KCl (sea lice [1]; [6]): 78.3% | % removed - mechanical treatment only (sea lice [1]; [6]): 60.9% | Sealice counts: Detached in pre-treatment tank (sea lice [1]; [6]): 51 | Sealice counts: On fish - finish (sea lice [1]; [6]): 25 | Sealice counts: On fish - start of mechanical treatment (sea lice [1]; [6]): 64 | # removed - mechanical + KCl (sea lice [1]; [7]): 117 | # removed - mechanical treatment only (sea lice [1]; [7]): 65 | % removed - mechanical + KCl (sea lice [1]; [7]): 80.7% | % removed - mechanical treatment only (sea lice [1]; [7]): 69.9% | Sealice counts: Detached in pre-treatment tank (sea lice [1]; [7]): 52 | Sealice counts: On fish - finish (sea lice [1]; [7]): 28 | Sealice counts: On fish - start of mechanical treatment (sea lice [1]; [7]): 93 | # removed - mechanical + KCl (sea lice [1]; [8]): 99 and 115 | # removed - mechanical treatment only (sea lice [1]; [8]): 19 and 16 | % removed - mechanical + KCl (sea lice [1]; [8]): 91.7% and 99.1% | % removed - mechanical treatment only (sea lice [1]; [8]): 67.9% and 94.1% | Sealice counts: Detached in pre-treatment tank (sea lice [1]; [8]): 80 and 99 | Sealice counts: On fish - start of mechanical treatment (sea lice [1]; [8]): 28 and 17 | # removed - mechanical + KCl (sea lice [1]; [9]): 88 and 85 | # removed - mechanical treatment only (sea lice [1]; [9]): 9 and 11 | % removed - mechanical + KCl (sea lice [1]; [9]): 91.7% and 93.4% | % removed - mechanical treatment only (sea lice [1]; [9]): 52.9% and 64.7% | Sealice counts: Detached in pre-treatment tank (sea lice [1]; [9]): 79 and 74 | Sealice counts: On fish - finish (sea lice [1]; [9]): 8 and 6 | Sealice counts: On fish - start of mechanical treatment (sea lice [1]; [9]): 17 | Sealice counts: On fish - finish (sea lice [1]; Mechanical Treatment C, KCl 2 PPT in seawater, treatment time 5 min, lice not counted prior to treatment): 35 and 31 | removing/detaching lice by KCl pretreatment on its own (sea lice [1]; pretreatment at 4ppt and 2ppt in seawater): effective in removing/detaching lice on its own | effectiveness of KCl at 4ppt compared with 2ppt (sea lice [1]; seawater pretreatment): more effective | effectiveness of KCl at 4ppt for 15 minutes compared with 5 minutes (sea lice [1]; seawater pretreatment, 4ppt): more effective | sea lice detachment (sea lice [2]; [4]): noticeable sea lice detachment | sea lice detachment (sea lice [2]; Example 2: 0.43% (4.3 ppt) agricultural grade KCl, by agitation and thrashing of the dying fish): detached more lice | sea lice removal (sea lice [2]; [5]): marked sea lice removal | sea lice detachment (sea lice [2]; Example 4: 0.2% (2.0 ppt) agricultural grade KCl, fresh well water at 10° C., after 30 minutes): marked sea lice detachment | effectiveness on sea lice in freshwater compared with seawater (sea lice [2]; freshwater vs seawater): more effective

emamectin benzoate
time the pesticide can remain in the fish [3]: more than two months
